Source: patent US7244727B2, “Fused bicyclic nitrogen-containing heterocycles” (Japan Tobacco Inc., priority 2002, dated 2007)

Molecular target: T1, human DGAT1 (Homo sapiens, UniProt O75907)
T1 construct: made in house; host or cells: insect cells (sf9, sf21 or High Five) infected with baculovirus; total cell membranes
T1 sequence (O75907 1-488): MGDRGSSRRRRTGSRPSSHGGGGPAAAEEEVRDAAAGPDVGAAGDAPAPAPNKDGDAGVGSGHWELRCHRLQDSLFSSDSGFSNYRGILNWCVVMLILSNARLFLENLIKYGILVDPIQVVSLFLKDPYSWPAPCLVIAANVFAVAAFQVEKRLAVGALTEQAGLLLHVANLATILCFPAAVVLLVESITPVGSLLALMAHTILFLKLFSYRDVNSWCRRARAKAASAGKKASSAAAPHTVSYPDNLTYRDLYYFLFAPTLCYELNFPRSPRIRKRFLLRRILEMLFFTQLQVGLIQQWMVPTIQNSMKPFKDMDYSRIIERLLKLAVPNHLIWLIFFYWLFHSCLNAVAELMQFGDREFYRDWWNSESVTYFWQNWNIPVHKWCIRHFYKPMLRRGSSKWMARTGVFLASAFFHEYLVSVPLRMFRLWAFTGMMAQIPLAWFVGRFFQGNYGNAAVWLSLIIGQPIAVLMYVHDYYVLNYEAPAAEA
Assay: DGAT Scintillation Proximity Assay (SPA) with membranes of insect cells expressing human flagtag DGAT1
Assay type: biochemical
Details: read-out: hDGAT1 IC50
Procedure: In such an assay human DGAT1 is cloned from a human liver cDNA library. PCR is used to add a restriction site and flag epitope at the most 5′ end and a restriction site at the 3′ end of the sequence. Thereafter, human flagtag (FT) DGAT1 baculovirus may be generated using a Bac-to-Bac Baculovirus Expression System® (Invitrogen). Insect cells (e.g., sf9, sf2 1, or High Five) are infected for 24 to 72 h and collected by centrifugation. Cell pellets are resuspended in homogenization buffer and lysed using a homogenization device, such as a Microfluidizer. Total cell membranes are collected by ultracentrifugation at 45,000 rpm for 1 h.
A small aliquot (0.2 μg/well) of membrane is incubated with 10 μM compound or mercuric chloride (as positive control for inhibition) in the presence of enzyme substrate, dioleoyl glycerol (200 μM) in 384 well plates, final volume 50 gL per well. […] The reaction is stopped by adding Wheat Germ Agglutinin (WGA) SPA beads (0.2 mg) in mercuric chloride. Cell membranes are allowed to couple to the beads overnight. The signal can be measured using, for example, a Chemiluminescence Image Plate Reader (CLIPR) or TopCount device.

| SMILES | IC50 |
| --- | --- |
| Cc1nc(N)c2c(n1)OC(C)(C)C(c1ccc(C3CCC(C(C)C(=O)O)CC3)cc1)=N2 (single isomer, unassigned) [Example 9] | 10 to 100 nM |
| Nc1ncnc2c1N=C(c1ccccc1Br)CO2 [Example 1-5] | > 100 nM |
| Nc1ncnc2c1N=C(c1ccc(Br)s1)CO2 [Example 1-24] | > 100 nM |
| CN(C)C(=O)C=C1CCC(c2ccc(C3=Nc4c(N)ncnc4OC3(C)C)cc2)CC1 (centres unmarked) [Example 2-44] | 10 to 100 nM |
| CC1(C)Oc2ncnc(N)c2N=C1c1ccc(C2CCC(=CC(N)=O)CC2)cc1 (centres unmarked) [Example 2-46] | 10 to 100 nM |
| CC1(C)Oc2ncnc(N)c2N=C1c1ccc(C2CCC(=CC(=O)NCCO)CC2)cc1 (centres unmarked) [Example 2-48] | 10 to 100 nM |
| Cc1nc(N)c2c(n1)OC(C)(C)C(c1ccc([C@H]3CC[C@H](CNC(=O)COC(=O)CCC(=O)O)CC3)cc1)=N2 [Example 2-49] | 10 to 100 nM |
| CN1CCN(C(=O)C=C2CCC(c3ccc(C4=Nc5c(N)ncnc5OC4(C)C)cc3)CC2)CC1 (centres unmarked) [Example 2-50] | 10 to 100 nM |
| CN(C)CCNC(=O)C=C1CCC(c2ccc(C3=Nc4c(N)ncnc4OC3(C)C)cc2)CC1 (centres unmarked) [Example 2-51] | 10 to 100 nM |
| CC1(C)Oc2ncnc(N)c2N=C1c1ccc([C@H]2CC[C@H](CN)CC2)cc1 [Example 2-63] | 10 to 100 nM |
| CC1(C)Oc2ncnc(N)c2NC1c1ccc([C@H]2CC[C@H](CCO)CC2)cc1 (some centres unmarked) [Example 2-81] | > 100 nM |
| CC1(C)Oc2ncnc(N)c2N=C1c1ccc(C2CCC(N3CCCC3)CC2)cc1 (centres unmarked) [Example 2-89] | > 100 nM |
| CC1(C)Oc2ncnc(N)c2N=C1c1ccc(C2CCC(N3CCCCC3)CC2)cc1 (centres unmarked) [Example 2-90] | > 100 nM |
| CC1(C)Oc2ncnc(N)c2N=C1c1ccc([C@H]2CC[C@H](CNC(=O)CO)CC2)cc1 [Example 2-91] | 10 to 100 nM |
| COc1ccc2[nH]c(C[C@H]3CC[C@H](c4ccc(C5=Nc6c(N)ncnc6OC5(C)C)cc4)CC3)nc2c1 [Example 2-121] | 10 to 100 nM |
| CC(C)(C)OC(=O)NS(=O)(=O)NC[C@H]1CC[C@H](c2ccc(C3=Nc4c(N)ncnc4OC3(C)C)cc2)CC1 [Example 2-125] | < 10 nM |
| Cc1nc(N)c2c(n1)OC(C)(C)C(c1ccc([C@H]3CC[C@H](CC4=NS(=O)ON4)CC3)cc1)=N2 (some centres unmarked) [Example 2-153] | < 10 nM |

| SMILES | IC50 |
| --- | --- |
| Cc1nc(N)c2c(n1)OC(C)(C)C(c1ccc([C@H]3CC[C@H](Cc4cc(O)[nH]n4)CC3)cc1)=N2 [Example 2-155] | 10 to 100 nM |
| Cc1nc(N)c2c(n1)OC(C)(C)C(c1ccc([C@H]3CC[C@H](Cn4oc(=O)[nH]c4=O)CC3)cc1)=N2 [Example 2-157] | < 10 nM |
| Cc1nc(N)c2c(n1)OC(C)(C)C(c1ccc([C@H]3CC[C@H](CN4CC(C)(C)C(O)C4=O)CC3)cc1)=N2 (some centres unmarked) [Example 2-167] | 10 to 100 nM |
| Cc1nc(N)c2c(n1)OC(C)(C)C(c1ccc([C@H]3CC[C@H](Cc4nc(=O)on4C)CC3)cc1)=N2 [Example 2-168] | 10 to 100 nM |
| Cc1nc(N)c2c(n1)OC(C)(C)C(c1ccc([C@H]3CC[C@H](CN4CCNC4=O)CC3)cc1)=N2 [Example 2-171] | > 100 nM |
| CN1CCN(C(=O)CC[C@H]2CC[C@H](c3ccc(C4=Nc5c(N)ncnc5OC4(C)C)cc3)CC2)CC1 [Example 2-181] | 10 to 100 nM |
| CC1(C)Oc2ncnc(N)c2N=C1c1ccc([C@H]2CC[C@H](CO)CC2)cc1 [Example 2-216] | 10 to 100 nM |
| CC1(C)Oc2ncnc(N)c2NC1c1ccc([C@H]2CC[C@H](CO)CC2)cc1 (some centres unmarked) [Example 2-223] | > 100 nM |
| CC1(C)Oc2ncnc(N)c2N=C1c1ccc([C@H]2CC[C@H](CN3CCC(O)CC3)CC2)cc1 [Example 2-225] | > 100 nM |
| CC1(C)Oc2ncnc(N)c2N=C1c1ccc([C@H]2CC[C@H](CN3CCC(O)(c4ccccc4)CC3)CC2)cc1 [Example 2-226] | > 100 nM |
| CN1CCN(C[C@H]2CC[C@H](c3ccc(C4=Nc5c(N)ncnc5OC4(C)C)cc3)CC2)CC1 [Example 2-230] | 10 to 100 nM |
| CC(C)(C)OC(=O)N1CCN(C[C@H]2CC[C@H](c3ccc(C4=Nc5c(N)ncnc5OC4(C)C)cc3)CC2)CC1 [Example 2-242] | > 100 nM |
| CC1(C)Oc2ncnc(N)c2N=C1c1ccc(C2CCNCC2)cc1 [Example 3-2] | > 100 nM |
| CC1(C)Oc2ncnc(N)c2N=C1c1ccc(N2CCC(Cc3ccccc3)CC2)cc1 [Example 4-2] | > 100 nM |
| Cc1nc(N)c2c(n1)OC(C)(C)C(c1ccc([C@H]3CC[C@H](CC(=O)O)CC3)cc1)C2 (some centres unmarked) [Example 7-2] | 10 to 100 nM |
| Cc1ccc(C2=Cc3c(N)ncnc3OC2(C)C)cc1 [Example 7-3] | > 100 nM |
| CC1(C)Oc2ncnc(N)c2N=C1c1ccc2c(c1)CCC[C@]21CC[C@@H](CC(=O)O)CC1 [Example 8] | < 10 nM |

Now from value to compound:

| IC50 | SMILES |
| --- | --- |
| 10 to 100 nM | CC1(C)Oc2ncnc(N)c2N=C1c1ccc2c(c1)COC21CCC(CC(=O)O)CC1 (centres unmarked) [Example 8-2] |
| 10 to 100 nM | Cc1nc(N)c2c(n1)OC(C)(C)C(c1ccc3c(c1)CCC31CCC([C@@H](C)C(=O)O)CC1)=N2 (some centres unmarked) [Example 8-4] |
| 10 to 100 nM | Cc1nc(N)c2c(n1)OC(C)(C)C(c1ccc3c(c1)CC[C@]31CC[C@@H](CC(=O)O)CC1)=N2 [Example 8-6] |
| 10 to 100 nM | Cc1nc(N)c2c(n1)OC(C)(C)C(c1ccc(C3CCC([C@H](C)C(=O)O)CC3)cc1)=N2 (some centres unmarked) [Example 9-2] |
| 10 to 100 nM | CC1(C)Oc2ncnc(N)c2N=C1c1ccc2c(c1)CC[C@@H]1C/C(=C\C(=O)O)CC[C@H]21 [Example 10-2] |
| < 10 nM | CC1(C)Oc2ncnc(N)c2N=C1c1ccc(C2CCC(C(C)(C)C(=O)O)CC2)cc1 (centres unmarked) [Example 10-3] |
| 10 to 100 nM | CC1(C)Oc2ncnc(N)c2N=C1c1ccc(C2CCC3(CC2)CC3C(=O)O)cc1 (centres unmarked) [Example 10-4] |
| 10 to 100 nM | CC1(C)Oc2ncnc(N)c2N=C1c1ccc(C2CCC(C3(C(=O)O)CC3)CC2)cc1 (centres unmarked) [Example 10-5] |
| 10 to 100 nM | CC1(C)Oc2ncnc(N)c2N=C1c1ccc(C2CCC(C(O)C(=O)O)CC2)cc1 (centres unmarked) [Example 10-6] |
| 10 to 100 nM | CC1(C)Oc2ncnc(N)c2N=C1c1ccc(C2CCC(c3cc(O)[nH]n3)CC2)cc1 (centres unmarked) [Example 10-7] |
| 10 to 100 nM | CC1(C)Oc2ncnc(N)c2N=C1c1ccc(C2CCC(c3cc(O)no3)CC2)cc1 (centres unmarked) [Example 10-8] |
| 10 to 100 nM | CC1(C)Oc2ncnc(N)c2N=C1c1ccc(C2CCC(c3cc(O)on3)CC2)cc1 (centres unmarked) [Example 10-9] |
| < 10 nM | CC1(C)Oc2ncnc(N)c2N=C1c1ccc2c(c1)CCC21CCC(CC(=O)O)CC1 (centres unmarked) [Example 10-10] |
| 10 to 100 nM | CC1(C)Oc2ncnc(N)c2N=C1c1ccc2c(c1)C(C)(C)CCC21CCC(CC(=O)O)CC1 (centres unmarked) [Example 10-11] |
| 10 to 100 nM | CC1(C)Oc2ncnc(N)c2N=C1c1ccc2c(c1)CCCC21CCC(C2(C(=O)O)CC2)CC1 (centres unmarked) [Example 10-12] |
| < 10 nM | CC1(C)Oc2ncnc(N)c2N=C1c1ccc2c(c1)CCC21CCC(C(C)(C)C(=O)O)CC1 (centres unmarked) [Example 10-13] |
| 10 to 100 nM | Cc1nc(N)c2c(n1)OC(C)(C)C(c1ccc(C3CCC(C(C)(C)C(=O)O)CC3)cc1)=N2 (centres unmarked) [Example 10-14] |
| < 10 nM | CC(C(=O)O)C1CCC(c2ccc(C3=Nc4c(N)nc(C(F)(F)F)nc4OC3(C)C)cc2)CC1 (centres unmarked) [Example 10-15] |
| 10 to 100 nM | Cc1nc(N)c2c(n1)OC(C)(C)C(c1ccc3c(c1)CCC31CCC(C(C)(C)C(=O)O)CC1)=N2 (centres unmarked) [Example 10-16] |
| < 10 nM | CC(C(=O)O)C1CCC2(CCc3cc(C4=Nc5c(N)nc(C(F)(F)F)nc5OC4(C)C)ccc32)CC1 (centres unmarked) [Example 10-17] |
| 10 to 100 nM | CCc1nc(N)c2c(n1)OC(C)(C)C(c1ccc(C3CCC(CC(=O)O)CC3)cc1)=N2 (centres unmarked) [Example 10-18] |
| 10 to 100 nM | CC1(C)Oc2nc(C(F)(F)F)nc(N)c2N=C1c1ccc(C2CCC(C3(C(=O)O)CC3)CC2)cc1 (centres unmarked) [Example 10-19] |
| 10 to 100 nM | CC1(C)Oc2nc(C(F)(F)F)nc(N)c2N=C1c1ccc(C2CCC(C(C)(C)C(=O)O)CC2)cc1 (centres unmarked) [Example 10-20] |
| 10 to 100 nM | Cc1nc(N)c2c(n1)OC(C)(C)C(c1ccc(C3CCC(C4(C(=O)O)CC4)CC3)cc1)=N2 (centres unmarked) [Example 10-21] |
| 10 to 100 nM | Cc1nc(N)c2c(n1)OC(C)(C)C(c1ccc([C@H]3CC[C@H](CC(=O)O)CC3)c(C)c1)=N2 [Example 10-22] |
| 10 to 100 nM | CCc1nc(N)c2c(n1)OC(C)(C)C(c1ccc([C@H]3CC[C@H](CC(=O)O)CC3)cc1)N2 (some centres unmarked) [Example 10-23] |
| 10 to 100 nM | Cc1nc(N)c2c(n1)OC(C)(C)C(c1ccc3c(c1)CCC31CCC(C3(C(=O)O)CC3)CC1)=N2 (centres unmarked) [Example 10-24] |
| 10 to 100 nM | CC1(C)Oc2nc(C(F)(F)F)nc(N)c2N=C1c1ccc2c(c1)CCC21CCC(C2(C(=O)O)CC2)CC1 (centres unmarked) [Example 10-25] |
